Reference: ChEMBL document CHEMBL1156257, “Antibacterial effect of some benzopyrone derivatives” (2010)

Legend:
Assay type in all cases: functional
Staphylococcus capitis [1] = assay: Antibacterial activity against Staphylococcus capitis ATCC 2784 assessed as decrease in survival at 50 x 10^-6 M by turbidimetric method
Escherichia coli = assay: Antibacterial activity against Escherichia coli XL-1 blue assessed as decrease in survival at 50 x 10^-6 M by turbidimetric method
Staphylococcus capitis [2] = assay: Antibacterial activity against Staphylococcus capitis ATCC 2784 assessed as decrease in survival at 1.3 M by turbidimetric method
Staphylococcus capitis [3] = assay: Antibacterial activity against Staphylococcus capitis ATCC 2784 assessed as decrease in survival at 0.5 M by turbidimetric method

Compound | Activity (Staphylococcus capitis [1]) [%] | Activity (Escherichia coli) [%] | Activity (Staphylococcus capitis [2]) [%] | Activity (Staphylococcus capitis [3]) [%]
Cc1cc(=O)c2c(O)c(/C=N/CCC/N=C/c3c(O)cc4oc(C)cc(=O)c4c3O)c(O)cc2o1 | 70 | 35 |  | 
COc1c(/C=N/CC/N=C/c2c(O)cc3oc(C)cc(=O)c3c2OC)c(O)cc2oc(C)cc(=O)c12 | 40 | 54 |  | 
COc1c(/C=N/CCC/N=C/c2c(O)cc3oc(C)cc(=O)c3c2OC)c(O)cc2oc(C)cc(=O)c12 | 55 | 30 |  | 
Cc1cc(=O)c2c(O)c(/C=N/CC/N=C/c3c(O)cc4oc(C)cc(=O)c4c3O)c(O)cc2o1 | 50 | 60 |  | 
CN(C)C=O [DIMETHYLFORMAMIDE] |  |  | 80 | 10
